For data set [1], the system named is NCI-H460, NCI-H460/R, DLD1, DLD1-TxR cells. The data set is described as follows: MTT assay, grouping of inhibitors by IC50 over the cancer cell lines. To be noted: Homo sapiens, Figure 2b, read-out: IC50 values (grouping for Pearson correlation). The data set is classed as cell-based. The procedure: When the IC50 values obtained by the MTT assay were compared to Hsp90 affinity binding IC50 values (Table 1), a positive Pearson correlation (r > 0.5) was found for all cancer cell lines (Figure 2b).
(§1) Cell viability was assessed by the MTT assay (AppliChem GmbH, Darmstadt, Germany). Cells grown in 25 cm^2 tissue flasks were trypsinized and 1000 cells/well were seeded into flat-bottomed 96-well tissue culture plates and incubated overnight. Subsequently, the cells were treated with increasing concentrations of Hsp90 inhibitors for 72 h: compound 3 (0.1–2.5 µM), compound 4 (0.25–5 µM), compound 5 (0.5–25 µM), compound 6 (50–1000 nM), compound 7 (10–250 nM), compound 8 (0.25–5 µM), compound 9 (10–250 nM), compound 10 (0.5–25 µM), compound 13 (0.5–10 µM), compound 14 (1–25 µM), and compound 15 (10–250 nM). […] After treatment, MTT was added to each well in a final concentration of 0.2 mg/mL for 4 h. Formazan product was dissolved in 200 µl of DMSO, and the absorbance was measured at 540 nm using an automatic LKB 5060-006 Micro Plate Reader (Vienna, Austria). IC50 value was defined as a concentration of the drug that inhibited cell growth by 50% and was calculated by nonlinear regression analysis using GraphPad Prism 6.0 for Windows (La Jolla, CA, USA). Relative selectivity towards cancer cells was calculated as a relation between IC50 value obtained in MRC-5 cells and an average IC50 value from four tested cancer cell lines.
Background: Tetrazolium dyes change colour on reduction, which living cells bring about.

The next data set has as its target P-gp (Homo sapiens, UniProt P08183). Kind of data set: P-gp ATPase activity assay (Pgp-Glo). The data set is classed as biochemical. Also on record: purchased Promega. Particulars: 5: 5, 10, 20 µM; 7 and 9: 100, 250, 500 nM; Figure 5a. On the procedure:
P-gp relies on the ATP hydrolysis energy to extrude the substrate outside the cell and compounds that interact with P-gp can stimulate or inhibit its ATPase activity. Compounds that are P-gp substrates usually stimulate its ATPase activity. Pgp-Glo™ assay system (Promega, Madison, WI, USA) detects the compound’s effect on recombinant human P-gp in a cell membrane fraction. P-gp ATPase activity was measured using luminescent Pgp-Glo™ assay kit according to manufacturer’s instructions. Briefly, ATP was first incubated with P-gp; then the P-gp ATPase reaction was stopped, and the remaining unmetabolized ATP was detected as a luciferase-generated luminescent signal. Pgp-dependent decreases in luminescence reflect ATP consumption by P-gp; thus, the greater the decrease in signal, the higher the P-gp activity. […] Verapamil and sodium orthovanadate, supplied in the assay kit were used as positive controls. Verapamil is a P-gp substrate and competitive inhibitor, and sodium orthovanadate is a noncompetitive inhibitor of P-gp ATPase activity. The luminescence of samples treated with increasing concentrations of compound 5 (5 µM, 10 µM and 20 µM), compound 7 (100 nM, 250 nM and 500 nM) and compound 9 (100 nM, 250 nM and 500 nM), was measured with a luminometer microplate reader (CHAMELEON™V, Hidex, Turku, Finland).

In another data set the test system is DLD1-TxR cells. The data set is described as follows: MTT assay, cell growth inhibition, DLD1-TxR (MDR). It is filed as cell-based, human. To be noted: 72 h; for IC50: Homo sapiens, MDR cells. The procedure:
(§2) A series of 3-aryl-naphtho[2,3-d]isoxazole-4,9-diones were synthesized (Scheme 1, Figure 1) and their growth inhibition activity was tested in vitro on human non-small cell lung carcinoma NCI-H460, colorectal carcinoma DLD1 and their corresponding MDR cells (NCI-H460/R and DLD1-TxR, respectively), as well as normal embryonic lung fibroblasts MRC-5. The differences in cell growth inhibition between cancer and normal cells obtained by the MTT assay after 72 h treatment are presented in Table 1. The effect of compounds is presented as IC50 values that correspond to the 50% of cell growth inhibition.
Human colorectal carcinoma (DLD1), non-small cell lung carcinoma (NCI-H460), and normal embryonic lung fibroblast (MRC-5) cell lines were purchased from the American Type Culture Collection, Rockville, MD. P-gp overexpressing multidrug resistant DLD1-TxR cells were selected by continuous exposure to stepwise increasing concentrations of paclitaxel from DLD1 cells, while NCI-H460/R cells were selected from NCI-H460 cells after DOX selective pressure. MDR cancer cell lines, DLD1-TxR and NCI-H460/R, and their sensitive counterparts were maintained in RPMI 1640 medium supplemented with 10% FBS, 2 mM L-glutamine, and 10,000 U/mL penicillin, 10 mg/mL streptomycin, 25 mg/mL amphotericin B solutions. MRC-5 cells were cultured in DMEM supplemented with 10% FBS, 4 g/L glucose, 2 mM L-glutamine and 5000 U/mL penicillin, 5 mg/mL streptomycin solution. All cell lines were sub-cultured at 72 h intervals using 0.25% trypsin/EDTA and seeded into a fresh medium at 8000 cells/cm^2. All cell lines were maintained at 37 °C in a humidified 5% CO2 atmosphere.
as §1

For the next data set, the system named is DLD1 cells. The data set is described as follows: MTT assay, cell growth inhibition, DLD1. The data set is classed as cell-based. To be noted: Homo sapiens, DLD-1, 72 h. On the procedure: as §2, §1

We go through three molecules from publication PMC6770006, “Novel Heat Shock Protein 90 Inhibitors Suppress P-Glycoprotein Activity and Overcome Multidrug Resistance in Cancer Cells” (International Journal of Molecular Sciences, 2019).

Each structure is given as a SMILES string.

Sequence of P-gp (P08183 whole entry): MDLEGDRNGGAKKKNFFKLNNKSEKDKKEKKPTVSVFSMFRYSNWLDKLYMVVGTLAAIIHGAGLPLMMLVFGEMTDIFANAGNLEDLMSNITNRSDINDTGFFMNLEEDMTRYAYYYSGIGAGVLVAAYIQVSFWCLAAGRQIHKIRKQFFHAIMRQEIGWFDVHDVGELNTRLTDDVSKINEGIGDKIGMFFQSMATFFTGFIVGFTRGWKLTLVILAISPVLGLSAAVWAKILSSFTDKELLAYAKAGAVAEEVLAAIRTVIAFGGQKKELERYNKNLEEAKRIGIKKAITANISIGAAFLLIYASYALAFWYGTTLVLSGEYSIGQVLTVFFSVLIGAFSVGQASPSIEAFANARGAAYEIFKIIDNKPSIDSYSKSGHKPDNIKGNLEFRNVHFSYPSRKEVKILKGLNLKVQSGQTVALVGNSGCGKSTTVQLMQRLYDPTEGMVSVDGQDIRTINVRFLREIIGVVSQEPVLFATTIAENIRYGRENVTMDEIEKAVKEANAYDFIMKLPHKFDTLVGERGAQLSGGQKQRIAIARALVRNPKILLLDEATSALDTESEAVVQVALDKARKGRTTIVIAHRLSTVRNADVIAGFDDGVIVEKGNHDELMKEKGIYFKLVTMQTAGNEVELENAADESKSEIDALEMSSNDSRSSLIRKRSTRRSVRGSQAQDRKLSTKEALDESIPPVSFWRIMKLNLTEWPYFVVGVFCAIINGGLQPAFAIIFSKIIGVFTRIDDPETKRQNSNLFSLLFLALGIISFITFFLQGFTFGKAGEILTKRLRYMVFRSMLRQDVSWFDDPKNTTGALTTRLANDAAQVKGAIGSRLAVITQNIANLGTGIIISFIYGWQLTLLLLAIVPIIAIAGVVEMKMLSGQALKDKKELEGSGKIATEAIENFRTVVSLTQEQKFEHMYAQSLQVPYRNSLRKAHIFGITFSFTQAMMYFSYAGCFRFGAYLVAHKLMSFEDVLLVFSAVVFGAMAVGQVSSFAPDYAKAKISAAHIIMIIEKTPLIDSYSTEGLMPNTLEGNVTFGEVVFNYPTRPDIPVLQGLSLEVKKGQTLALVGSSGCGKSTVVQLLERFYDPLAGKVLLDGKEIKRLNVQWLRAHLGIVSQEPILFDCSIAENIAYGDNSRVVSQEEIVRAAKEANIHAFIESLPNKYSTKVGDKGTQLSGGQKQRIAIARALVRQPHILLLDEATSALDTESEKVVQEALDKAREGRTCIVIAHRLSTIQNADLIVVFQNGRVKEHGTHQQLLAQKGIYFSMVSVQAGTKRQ

Consider `O=C1c2ccccc2C(=O)c2c(-c3ccccc3O)noc21` [Compound 5], for which the IC50 (in general, the point on the concentration scale where inhibition reaches its midpoint) in data set [1] is at least 1000 nM; with DLD1-TxR cells, 11100 ± 304 nM; in the data set on DLD1 cells it was 5680 ± 163 nM. For the same molecule, on P-gp, the “Effect on P-gp ATPase activity” value is listed as “smallest effect on ATPase activity”. Besides, the “Efficacy in MDR DLD1-TxR cells compared with sensitive DLD1” value in the data set with DLD1-TxR cells is “further compromised in the presence of MDR phenotype”.
For `O=C1c2ccccc2C(=O)c2c(-c3ccncc3)noc21` [Compound 7], in that order: below 1000 nM, 138 ± 3 nM, 156 ± 4 nM, “potent dose-dependent inhibition” and “evaded resistance in both MDR cancer cell lines”.
In the case of `O=C1c2ccccc2C(=O)c2c(-c3cccnc3)noc21` [Compound 9], the IC50 in data set [1] was below 1000 nM; in the data set with DLD1-TxR cells, 50 ± 1 nM; in the data set on DLD1 cells it was 45 ± 1 nM. In addition, the “Effect on P-gp ATPase activity” value on P-gp is reported as “significant inhibition”.
